This assay addresses T1, recombinant human KLK5 (Homo sapiens, UniProt Q9Y337).
T1 construct: purchased Novoprotein or R&D Systems C415 or 1108-SE
T1 sequence (Q9Y337 23-293): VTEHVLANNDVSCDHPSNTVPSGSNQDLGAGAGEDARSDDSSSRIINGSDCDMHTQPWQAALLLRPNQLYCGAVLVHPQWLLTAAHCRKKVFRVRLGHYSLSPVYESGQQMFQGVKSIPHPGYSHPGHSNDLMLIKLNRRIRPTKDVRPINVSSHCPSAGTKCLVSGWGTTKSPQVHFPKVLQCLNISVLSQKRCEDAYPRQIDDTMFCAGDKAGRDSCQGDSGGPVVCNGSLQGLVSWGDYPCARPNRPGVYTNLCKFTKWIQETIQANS
As to the kind of experiment: Kallikrein (KLK) 5 enzymatic assay (Boc-VPR-AMC fluorogenic substrate). As to conditions: recombinant human KLK5 0.1 μg/well, Boc-VPR-AMC 100 μM, pH 7.5, room temperature, 1% DMSO; tested a minimum of three times. It counts as biochemical. Summed up: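 Fluorogenic rate assay at pH 7.5 (0.1 M NaH2PO4, 1% DMSO, room temperature), run at least three times per compound. Compound was premixed with 0.1 μg/well recombinant human KLK5 before adding 100 μM Boc-VPR-AMC; AMC release was read at ex 380/em 460 nm, and IC50 derived from inhibition of rate vs DMSO control.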

Broadly, the IC50 is the concentration needed to halve the response being measured.

On to `COCCC1(CCOC)CC(Oc2ccccc2CC(=O)O)c2cc(-c3cccc4c(N)nccc34)ccc21` (centres unmarked) [Compound 447b, 2-(2-((6-(1-aminoisoquinolin-5-yl)-3,3-bis(2-methoxyethyl)-2,3-dihydro-1H-inden-1-yl)oxy)phenyl)acetic acid], for which the half-maximal inhibitory concentration (IC50) is below 1000 nM.
In the case of `Cc1cccc(OC2CC3(CCN(S(C)(=O)=O)CC3)c3ccc(-c4ccc5ccnc(N)c5c4)cc32)c1CC(=O)O` (centres unmarked) [Compound 448c, 2-(2-((5-(1-aminoisoquinolin-7-yl)-1′-(methylsulfonyl)-2,3-dihydrospiro[indene-1,4′-piperidin]-3-yl)oxy)-6-methylphenyl)acetic acid] it was below 1000 nM; in that of `Cc1cccc(OC2CC3(CCN(S(C)(=O)=O)CC3)c3ccc(-c4cccc5c(N)nccc45)cc32)c1CC(=O)O` (centres unmarked) [Compound 449b, 2-(2-((5-(1-aminoisoquinolin-5-yl)-1′-(methylsulfonyl)-2,3-dihydrospiro[indene-1,4′-piperidin]-3-yl)oxy)-6-methylphenyl)acetic acid], below 1000 nM.
In the case of `Cc1cccc(OC2CC3(CCN(C(=O)OCC(C)C)CC3)c3ccc(-c4ccc5ccnc(N)c5c4)cc32)c1CC(=O)O` (centres unmarked) [Compound 450c, 2-(2-((5-(1-aminoisoquinolin-7-yl)-1′-(isobutoxycarbonyl)-2,3-dihydrospiro[indene-1,4′-piperidin]-3-yl)oxy)-6-methylphenyl)acetic acid] it was below 1000 nM; in that of `Cc1cccc(OC2CC3(CCN(C(=O)OCC(C)C)CC3)c3ccc(-c4cccc5c(N)nccc45)cc32)c1CC(=O)O` (centres unmarked) [Compound 451b, 2-(2-((5-(1-aminoisoquinolin-5-yl)-1′-(isobutoxycarbonyl)-2,3-dihydrospiro[indene-1,4′-piperidin]-3-yl)oxy)-6-methylphenyl)acetic acid], below 1000 nM.
In the case of `COC(=O)N1CCC2(CC1)CC(Oc1cc(OC)ccc1CC(=O)O)c1cc(-c3ccc4ccnc(N)c4c3)ccc12` (centres unmarked) [Compound 452c, 2-(2-((5-(1-aminoisoquinolin-7-yl)-1′-(methoxycarbonyl)-2,3-dihydrospiro[indene-1,4′-piperidin]-3-yl)oxy)-4-methoxyphenyl)acetic acid], the IC50 is below 1000 nM.
In the case of `COC(=O)N1CCC2(CC1)CC(Oc1cc(OC)ccc1CC(=O)O)c1cc(-c3cccc4c(N)nccc34)ccc12` (centres unmarked) [Compound 453b, 2-(2-((5-(1-aminoisoquinolin-5-yl)-1′-(methoxycarbonyl)-2,3-dihydrospiro[indene-1,4′-piperidin]-3-yl)oxy)-4-methoxyphenyl)acetic acid] it was below 1000 nM; in that of `COC(=O)N1CCC2(CC1)CC(Oc1c(C#N)cccc1CC(=O)O)c1cc(-c3ccc4ccnc(N)c4c3)ccc12` (centres unmarked) [Compound 454c, 2-(2-((5-(1-aminoisoquinolin-7-yl)-1′-(methoxycarbonyl)-2,3-dihydrospiro[indene-1,4′-piperidin]-3-yl)oxy)-3-cyanophenyl)acetic acid], 1000 to 10000 nM.
As for `COC(=O)N1CCC2(CC1)CC(Oc1c(C#N)cccc1CC(=O)O)c1cc(-c3cccc4c(N)nccc34)ccc12` (centres unmarked) [Compound 455b, 2-(2-((5-(1-aminoisoquinolin-5-yl)-1′-(methoxycarbonyl)-2,3-dihydrospiro[indene-1,4′-piperidin]-3-yl)oxy)-3-cyanophenyl)acetic acid], the figure is 1000 to 10000 nM; as for `CC(C)N1CCN(C2CC(Oc3ccccc3CC(=O)O)c3cc(-c4cccc5c(N)nccc45)ccc32)CC1` (centres unmarked) [Compound 456g, 2-(2-((6-(1-aminoisoquinolin-5-yl)-3-(4-isopropylpiperazin-1-yl)-2,3-dihydro-1H-inden-1-yl)oxy)phenyl)acetic acid], below 1000 nM; as for `CC(C)N1CCN(C2CC(Oc3ccccc3CC(=O)O)c3cc(-c4ccc5ccnc(N)c5c4)ccc32)CC1` (centres unmarked) [Compound 457b], below 1000 nM.
In the case of `Nc1nccc2c(-c3ccc4c(c3)c(COc3ccccc3CC(=O)O)cn4C3CCOC3)cccc12` (centres unmarked) [Compound 458f, 2-(2-((5-(1-aminoisoquinolin-5-yl)-1-(tetrahydrofuran-3-yl)-1H-indol-3-yl)methoxy)phenyl)acetic acid] it was below 1000 nM; in that of `Nc1nccc2c(-c3ccc4c(c3)[C@H](Oc3ccccc3CC(=O)O)C[C@H]4N3CCCCC3)cccc12` [Compound 459f, (+)-trans 2-(2-(((1R,3R)-6-(1-aminoisoquinolin-5-yl)-3-(piperidin-1-yl)-2,3-dihydro-1H-inden-1-yl)oxy)phenyl)acetic acid], below 1000 nM.
Take `Nc1nccc2c(-c3ccc4c(c3)[C@@H](Oc3ccccc3CC(=O)O)C[C@@H]4N3CCCCC3)cccc12` [Compound 459g, (−)-trans 2-(2-(((1S,3S)-6-(1-aminoisoquinolin-5-yl)-3-(piperidin-1-yl)-2,3-dihydro-1H-inden-1-yl)oxy)phenyl)acetic acid]: the IC50 fell in the range of 1000 to 10000 nM.

The record behind these values is patent US20240239752A1, “BICYCLIC HETEROAROMATIC INHIBITORS OF KLK5” (BioCryst Pharmaceuticals, Inc., priority 2021, published 2024).
